Laboratory results published in PubChem BioAssay (NCI).
Where “and” joins values, the source holds several entries; their conditions need not be identical. Equal entries are not always repeated.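 96-well plates; 48 h exposure; 5 concentrations. Endpoints by linear interpolation between flanking doses. Not reached: highest tested concentration assigned. Here, GI50 denotes the concentration required for 50% inhibition of growth. Definition used: TGI = concentration required for complete inhibition of growth.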

Columns and labels:
Test in all cases: DTP human tumour cell line panel, 48 h
[1] = system: A498 renal
[2] = system: ACHN renal
[3] = system: K-562 leukemia
[4] = system: CCRF-CEM leukemia
[5] = system: NCI-H23 lung
[6] = system: SK-MEL-5 melanoma
[7] = system: SF-295 CNS
[8] = system: NCI-H522 lung
[9] = system: SF-539 CNS
[10] = system: BT-549 breast

Row | SMILES | TGI [1] | TGI [2] [µM] | TGI [3] [µM] | TGI [4] [µM] | TGI [5] [µM] | TGI [6] [µM] | TGI [7] | TGI [8] [µM] | GI50 [8] [µM] | GI50 [9] | TGI [9] | GI50 [2] [µM] | GI50 [10] [µM] | TGI [10] [µM] | GI50 [4] [µM] | GI50 [6] [µM] | GI50 [7] | GI50 [1] [µM] | GI50 [5] [µM] | GI50 [3] [µM]
1 | COC(=O)C1[C@H](c2ccc3c(c2)OCO3)OC(=O)[C@]1(C(=O)OC)C(=O)c1ccc(OC)c(OC)c1 (stereo partly drawn) | > 100 µM | > 100 | > 100 | > 100 | > 100 | > 100 | > 100 µM |  |  |  |  |  |  |  |  |  |  |  |  | 
2 | Cc1ccc(S(=O)(=O)OCCOCCOCCOCCOCCOS(=O)(=O)c2ccc(C)cc2)cc1 | > 100 µM | > 100 | > 100 | 66.4 | > 100 | 65 | > 100 µM | > 100 |  |  |  |  |  |  |  |  |  |  |  | 
3 | CN1CCN(CCCN2c3ccccc3Sc3ccc(Cl)cc32)CC1 | 5.82 µM and 31.6 µM | 12.4 |  | 15.1 | 12 | 62 | 12.8 µM and 55.6 µM | 56.8 | 42 | 7.49 µM and 51.6 µM | 14.6 µM and 87.9 µM | 5.93 | 6.56 | 13.4 | 6.46 | 48.5 | 6 µM and 33.2 µM |  |  | 
4 | C=CC(=O)Nc1cccc(Oc2nc(Nc3ccc(N4CCN(C)CC4)cc3OC)ncc2Cl)c1 | 3.49 µM | 3.14 |  | > 26.3 | 23.7 | 3.92 | 5.81 µM | 1.75 | 0.308 | 1.98 µM | 3.72 µM | 0.421 | 1.99 | 4.58 | 3.17 | 1.89 | 2.21 µM | 1.11 | 3.92 | 
5 | N#CCc1nnc(N)o1 |  | > 100 | > 100 | > 100 | > 100 |  | > 100 µM | > 100 |  |  | > 100 µM |  |  |  |  |  |  |  |  | 
6 | CN(C)c1ccccc1[CH2][Ga]([Cl])[CH2]c1ccccc1N(C)C |  | 3.12 | 4.46 | 4.82 | 2.06 | 2.49 | 2.48 µM | 3.45 | 1.41 | 1.7 µM | 3.5 µM | 1.43 | 1.83 | 3.29 | 0.399 | 1.22 | 0.964 µM |  | 0.595 | 1.46
7 | CC[PH+](CC)CC.CC[PH+](CC)CC.[Au] |  | 31.4 | 41.1 | 11.9 | 28.6 | 17.5 | 26.9 µM | 1.25 | 0.308 | 8.3 µM | 25.3 µM | 17.6 |  |  | 2.04 | 3.5 | 13.5 µM |  | 13.3 | 5.98
8 | COc1ccc(NC(=O)c2ccc(NC3=C(Cl)C(=O)N(Cc4ccccc4)C3=O)cc2)c(OC)c1 | > 100 µM | > 100 | 43 |  | 29.2 | 75.2 | 99.1 µM | 68.9 | 19 | 28.2 µM | 67.1 µM | 36 | 13.1 | 45 |  | 26.2 | 25.7 µM | 61.1 | 14.3 | 8.18
